This is an account of results in US3969418A, “(4-Biphenylyl)-butenols” (Boehringer Ingelheim GmbH, priority 1972, dated 1976).

The test system of data set [1] is kaolin-induced edema and carrageenin-induced edema of the hind paw of the rat. Put plainly: Antiphlogistic (antiexudative) activity, kaolin and carrageenin edema together. Type of data set: in vivo, rat (male FW 49). The following applies: average value from kaolin edema and carrageenin edema, per os. How it is done: The above pharmacodynamic activity of the compounds of the present invention, namely their antiphlogistic activity and their toxicity, were ascertained in the manner described below.
(§1) The compounds were tested with respect to their antiexudative effect on the kaolin-induced edema and the carrageenin-induced edema of the hind paw of the rat and with respect to their acute toxicity after oral administration to rats, in comparison with phenylbutazone, a compound with known antiphlogistic activities.
(§2) a. Kaolin-induced edema of the hind paw of the rat
(§3) The kaolin edema was induced according to the method given by Hillebrecht [Arzneimittel-Forsch. 4, 607 (1954)] by subplantary injection of 0.05 ml of a 10% suspension of kaolin in a 0.85% sodium chloride solution. Measurement of the volume of the paws was effected using the technique of Doepfner and Cerletti [Int. Arch. Allergy Immunol. 12, 89 (1958)].
(§4) Male FW 49 rats having an average weight of 120 to 150 gm were fed with the test compounds 30 minutes before inducing the edema by means of an oesophageal tube. 5 hours after the provocation of the edema the averaged values of the swelling caused in the rats treated with the test compounds were compared with values measured on control animals. By graphical extrapolation, the dose leading to a 35% reduction of the swelling (ED35) was calculated from the presentage reduction values measured by the administration of different doses.
(§5) b. Carrageenin-induced edema of the hind paw of the rat
The provocation of the carrageenin edema was effected according to the method of Winter et al [Proc. Soc. exp. […]
For the calculation of the reductive effect on the edema the values measured 3 hours after the provocation of the edema were used. […]
(§6) The therapeutical index (a measure for the therapeutic usefulness) was calculated as the quotient of the oral LD50 and of the ED35 value calculated from the anti-exudative effect (average value from the kaolin-edema and the carrageenin-edema).
(In the carrageenan paw model, swelling and tenderness develop within hours.)

A further data set is described as follows: in vivo. The following applies: rat; for LD50 at 336 h: in vivo, po. The text has this:
The substances were fed as a trituration in Tylose.
The calculation of the LD50 values was effected, as far as possible according to the method of Litchfield and Wilcoxon, based on the percentage of animals which died within 14 days after administration of the different doses.

Data set [2] relates to Kaolin-induced edema of the hind paw of the rat. Put plainly: Kaolin-induced edema of the hind paw of the rat (antiexudative effect). Type of data set: in vivo, rat (male FW 49). The following applies: per os, 30 min before edema, measured 5 h after, dose for 35% reduction of swelling, by graphical extrapolation. The protocol: as §1, §2, §3, §4
Data set [3] relates to Carrageenin-induced edema of the hind paw of the rat. Put plainly: Carrageenin-induced edema of the hind paw of the rat (antiexudative effect). Conditions: per os, 60 min before edema, measured 3 h after, dose for 35% reduction of swelling. Type of data set: in vivo, rat (male FW 49). How it is done:
as §1, §4, §5
The provocation of the carrageenin edema was effected according to the method of Winter et al [Proc. Soc. exp. Biol. Med. 111, 544 (1962)] by subplantary injection of 0.05 ml of a 1% solution of carrageenin in a 0.85% solution of sodium chloride. The test compounds were administered 60 minutes before the provocation of the edema.
For the calculation of the reductive effect on the edema the values measured 3 hours after the provocation of the edema were used. All the other details were the same as described above in the case of the kaolin-induced edema.

A short description of data set [4]: Therapeutic index (LD50/ED35). The following applies: in vivo; oral LD50 / average ED35, rat; read-out: Therapeutical Index, ratio between toxic and antiexudative activity LD50/ED35. The protocol: as §6

Turning to `OCCC=Cc1ccc(-c2ccccc2F)cc1` [A, 4-(2"-fluoro-4'-biphenylyl)-3-buten-1-ol], the ED35 in data set [1] is 31.5 mg/kg; in data set [2] it was 44 mg/kg; in data set [3], 19 mg/kg. The LD50 (in general, the dose expected to kill half of the subjects tested) at 336 h in the data set “in vivo” was 1770 mg/kg. Besides, the selectivity ratio in data set [4] amounted to 56.2.

For the compound `OCCC=Cc1ccc(-c2ccccc2)cc1` [B, 4-(4'-biphenylyl)-3-buten-1-ol], the ED35 in data set [1] is 46 mg/kg; in data set [2] it was 42 mg/kg; in data set [3], 50 mg/kg. Moreover, the “animals died after application” value in “in vivo” (2000 mgm/kg per os) is reported as 0 out of 10 animals died. For the same compound, in “in vivo”, the LD50 at 336 h was above 2000 mg/kg. Also, the selectivity ratio in data set [4] is above 43.5.

As for `CCCCC1C(=O)N(c2ccccc2)N(c2ccccc2)C1=O` [Phenylbutazone, phenylbutazone, reference compound], the ED35 in data set [1] was 63.5 mg/kg; in data set [2] it was 58 mg/kg; in data set [3] it was 69 mg/kg.
